Experimental data reported in PMC13242511, “Disrupting Notch signalling by a small molecule inhibiting dihydroorotate dehydrogenase activity” (Scientific Reports, 2026).

What was measured:
Format in all cases: cell-based
[1] = tested on: Notch signalling; test: Notch reporter assay (12xCSL firefly luciferase / renilla luciferase, HEK293T Notch1ΔE reporter cell line clone #A1-11); settings: 24 h, unit from Fig. 2 legend
[2] = tested on: Notch signalling; test: as above; parameters: Confirmation screen: unit not given here; settings: for inhibitor ratio in % of DMSO in 3 point DR: 3-point DR confirmation screen, Notch reporter assay
Outline: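 Compounds at two-fold concentration in 10 µl medium were brought to one-fold by adding 10 µl holding 4000 Notch reporter cells (clone #A1-11) per well of a 384-well plate. After 24 h, Promega dual-GLO firefly and renilla luciferase were read on a SpectraMaxi3. Dose-response curves were fitted with a log(inhibitor) vs. response variable-slope model.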

[3] = molecular target: γ-secretase complex (Homo sapiens, UniProt P49768); test: APP-C99 counter assay (GSI reporter assay); settings: for 3p-DR in % of DMSO counter: APP-C99 counter assay
Outline: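 Cells transfected with APP-C99 firefly luciferase reporter plus renilla normalization plasmid, seeded 24 h later onto compound plates and cultured 24 h. Dual luciferase read in triplicate per concentration; IC50 from variable-slope log(inhibitor) fit, with AUC also calculated from dose–response curves.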

[4] = 10 µM, sheet conf vs counter 10 µM, same values as 3-point DR confirmation screen
[5] = 25 µM, Notch reporter 3-point dose-confirmation assay, sheet "conf vs counter 25 µM"
[6] = 10 µM, sheet conf vs counter 10 µM
[7] = 25 µM, sheet "conf vs counter 25 µM", same values given as % of DMSO in sheet "3p-DR in % of DMSO counter"

3p-DR in % of DMSO counter ([3]; 10µM)	Counter screen (Hek APP-C99) [3, 6]	3p-DR in % of DMSO counter ([3]; 25µM)	Counter screen (Hek APP-C99) [3, 7]	3p-DR in % of DMSO counter ([3]; 1,25µM)	SMILES	Primary screen at 10 µM (Notch reporter signal) [1]	inhibitor ratio in % of DMSO in 3 point DR ([2]; 10µM)	Confirmation screen [2, 4]	inhibitor ratio in % of DMSO in 3 point DR ([2]; 25µM)	Confirmation screen [2, 5]	inhibitor ratio in % of DMSO in 3 point DR ([2]; 1,25µM)
58.4 % of DMSO	58.4	61.0 % of DMSO	61.0	71.4 % of DMSO	C[C@@H]1C(=O)O[C@H]2[C@H]1CC[C@@]1(C)Cc3sc(NC(=O)CN(C)C)nc3[C@@H](C)[C@H]21 [CBK289431]	41.2 % of DMSO	39.6 % of DMSO	39.6	35.0 % of DMSO	35.0	40.7 % of DMSO
109.0 % of DMSO	108.9	82.2 % of DMSO	82.2	116.8 % of DMSO	Cc1ccc(NC(=O)c2cnc(SCc3ccc(F)cc3)n(C)c2=O)cc1C [CBK287674]	65.6 % of DMSO	73.8 % of DMSO	73.8	47.2 % of DMSO	47.2	99.3 % of DMSO
23.7 % of DMSO	23.6	12.4 % of DMSO	12.4	76.3 % of DMSO	C[C@@H]1C(=O)O[C@H]2[C@H]1CC[C@@]1(C)Cc3sc(NC(=O)CCC(=O)O)nc3[C@@H](C)[C@H]21 [CBK289429]	35.5 % of DMSO	38.0 % of DMSO	38.0	25.1 % of DMSO	25.1	77.4 % of DMSO
79.4 % of DMSO	79.4	84.5 % of DMSO	84.5	97.7 % of DMSO	O=C(NC(Nc1cccc(C(F)(F)F)c1)C(=O)c1ccccc1)c1ccc(Cl)cc1 (stereo not drawn) [CBK263585]	61.4 % of DMSO	59.9 % of DMSO	59.9	46.6 % of DMSO	46.6	104.0 % of DMSO
72.6 % of DMSO	72.6	66.8 % of DMSO	66.8	111.1 % of DMSO	NC(=O)c1c(NC(=S)NC(NC(=O)c2ccccc2)C(Cl)(Cl)Cl)sc2c1CCCC2 (stereo not drawn) [CBK261048]	67.0 % of DMSO	66.7 % of DMSO	66.7	49.9 % of DMSO	49.9	102.1 % of DMSO
81.1 % of DMSO	81.1	76.7 % of DMSO	76.7	74.5 % of DMSO	COc1ccc(N(CC(O)CN2CCOCC2)S(=O)(=O)c2ccccc2)cc1 (stereo not drawn) [CBK263589]	69.0 % of DMSO	96.3 % of DMSO	96.3	100.1 % of DMSO	100.1	103.6 % of DMSO

More lines, now with the values behind:

SMILES	3p-DR in % of DMSO counter ([3]; 10µM)	Counter screen (Hek APP-C99) [3, 6]	3p-DR in % of DMSO counter ([3]; 25µM)	Counter screen (Hek APP-C99) [3, 7]	3p-DR in % of DMSO counter ([3]; 1,25µM)	Primary screen at 10 µM (Notch reporter signal) [1]	inhibitor ratio in % of DMSO in 3 point DR ([2]; 10µM)	Confirmation screen [2, 4]	inhibitor ratio in % of DMSO in 3 point DR ([2]; 25µM)	Confirmation screen [2, 5]	inhibitor ratio in % of DMSO in 3 point DR ([2]; 1,25µM)
NC(=O)c1[nH]nc(C2OC(CO)C(O)C2O)c1O (stereo not drawn) [CBK201236]	107.3 % of DMSO	107.3	111.1 % of DMSO	111.1	135.7 % of DMSO	54.3 % of DMSO	67.4 % of DMSO	67.4	65.5 % of DMSO	65.5	68.2 % of DMSO
CC(=O)Nc1cccc(-c2ccc(Nc3cccc(N(C)C)c3)nc2)c1 [CBK036829]	40.4 % of DMSO	40.4	38.9 % of DMSO	38.9	49.9 % of DMSO	22.4 % of DMSO	28.3 % of DMSO	28.3	23.9 % of DMSO	23.9	30.6 % of DMSO
CCC(C)(C)c1ccc(S(=O)(=O)Nc2ccc3ncsc3c2)cc1 [CBK043490]	45.0 % of DMSO	45.0	59.5 % of DMSO	59.5	53.8 % of DMSO	46.9 % of DMSO	33.5 % of DMSO	33.5	42.6 % of DMSO	42.6	42.1 % of DMSO
FC(F)(F)CCN1CCC2(CC1)NCCc1c2[nH]c2ccc(Cl)cc12 [CBK039331]	111.0 % of DMSO	111.0	121.8 % of DMSO	121.7	81.3 % of DMSO	64.3 % of DMSO	79.3 % of DMSO	79.3	73.3 % of DMSO	73.3	98.4 % of DMSO
CCCC(=O)c1ccc(S(=O)(=O)N2CCN(Cc3csc(-c4ccccc4)n3)CC2)cc1 [CBK063161]	124.1 % of DMSO	124.1	120.8 % of DMSO	120.8	122.5 % of DMSO	68.2 % of DMSO	67.2 % of DMSO	67.2	76.4 % of DMSO	76.4	102.6 % of DMSO
Nc1ccc(Sc2nccnc2N2CCCC2)cc1 [CBK089520]	34.9 % of DMSO	34.9	11.6 % of DMSO	11.6	115.4 % of DMSO	43.1 % of DMSO	42.1 % of DMSO	42.1	27.1 % of DMSO	27.1	103.0 % of DMSO
